Test results taken from ChEMBL document CHEMBL3044832, “Synthesis and Insecticidal Activity of N-(Tolyloxybenzyl)-pyrazolecarboxamide Derivatives” (J Pestic Sci, 1999).

Tests used:
Myzus persicae [1] = experiment: Insecticidal activity against Myzus persicae (green peach aphid) assessed as insect mortality at 50 ppm; assay type: functional
Myzus persicae [2] = experiment: Insecticidal activity against Myzus persicae (green peach aphid) assessed as insect mortality at 0.78 ppm; assay type: functional
Myzus persicae [3] = experiment: Insecticidal activity against Myzus persicae (green peach aphid) assessed as insect mortality at 3.13 ppm; assay type: functional
Myzus persicae [4] = experiment: Insecticidal activity against Myzus persicae (green peach aphid) assessed as insect mortality at 12.5 ppm; assay type: functional
[5] = Acute toxicity in Mus musculus (mouse); assay type: organism-based; details: in vivo
Plutella xylostella [6] = experiment: Insecticidal activity against Plutella xylostella (diamondback moth) assessed as insect mortality at 3.13 ppm; assay type: functional
Plutella xylostella [7] = experiment: Insecticidal activity against Plutella xylostella (diamondback moth) assessed as insect mortality at 50 ppm; assay type: functional
Plutella xylostella [8] = experiment: Insecticidal activity against Plutella xylostella (diamondback moth) assessed as insect mortality at 0.78 ppm; assay type: functional
Plutella xylostella [9] = experiment: Insecticidal activity against Plutella xylostella (diamondback moth) assessed as insect mortality at 12.5 ppm; assay type: functional

SMILES | mortality at 50 ppm (Myzus persicae [1]) [%] | mortality at 0.78 ppm (Myzus persicae [2]) [%] | mortality at 3.13 ppm (Myzus persicae [3]) [%] | mortality at 12.5 ppm (Myzus persicae [4]) [%] | LD50 [5] [mg/kg] | mortality at 3.13 ppm (Plutella xylostella [6]) [%] | mortality at 50 ppm (Plutella xylostella [7]) [%] | mortality at 0.78 ppm (Plutella xylostella [8]) [%] | mortality at 12.5 ppm (Plutella xylostella [9]) [%]
CCc1nn(C)c(C(=O)NCc2cccc(Oc3ccc(C)cc3)c2)c1Cl | 80 | 0 | 30 | 80 | – | – | – | – | –
CC1CCc2c1nn(C)c2C(=O)NCc1ccc(Oc2ccc(C(F)(F)F)cc2)cc1 (configuration not stated) | – | – | – | – | < 30 | – | – | – | –
Cc1ccc(Oc2ccc(CNC(=O)c3c4c(nn3C)CCC4)cc2)cc1 | 100 | 0 | 0 | 30 | – | – | – | – | –
Cc1ccc(Oc2ccc(CNC(=O)c3c(Cl)c(C(C)(C)C)nn3C)cc2)cc1 | 30 | 0 | 0 | 0 | – | – | – | – | –
CCc1nn(C)c(C(=O)NCc2ccc(C(=O)c3ccc(C)cc3)cc2)c1Cl | 100 | 30 | 0 | 100 | – | 0 | 100 | 0 | 100
CCc1cc(C(=O)NCc2ccc(Oc3ccc(C)cc3)cc2)n(C)n1 | 30 | 0 | 0 | 0 | – | – | – | – | –
CCc1nn(C)c(C(=O)NCc2cccc(Oc3ccccc3C)c2)c1Cl | 30 | 0 | 0 | 30 | – | – | – | – | –
CCc1nn(C)c(C(=O)NCc2ccc(Cc3ccc(C)cc3)cc2)c1Cl | 0 | 0 | 0 | 0 | – | 0 | 80 | 0 | 0
Cc1ccc(Oc2ccc(CNC(=O)c3c(Cl)c(C(C)C)nn3C)cc2)cc1 | 100 | 0 | 0 | 30 | – | – | – | – | –
CCc1nn(C)c(C(=O)NCc2ccc(Oc3cccc(C)c3)cc2)c1Cl | 100 | 0 | 80 | 100 | – | – | – | – | –
Cc1ccc(Oc2ccc(CNC(=O)c3c(Cl)c(C(F)(F)F)nn3C)cc2)cc1 | 0 | 0 | 0 | 0 | – | – | – | – | –
CCc1nn(C)c(C(=O)NCc2ccccc2Oc2ccc(C)cc2)c1Cl | 0 | 0 | 0 | 0 | – | – | – | – | –
CCc1nn(C)c(C(=O)NCc2ccc(Sc3ccc(C)cc3)cc2)c1Cl | 100 | 30 | 0 | 100 | – | 0 | 30 | 0 | 30
Cc1ccc(Oc2ccc(CNC(=O)c3c(Cl)c(C)nn3C)cc2)cc1 | 100 | 0 | 0 | 100 | – | – | – | – | –
CCc1nn(C)c(C(=O)NCc2ccc(Oc3ccccc3C)cc2)c1Cl | 100 | 0 | 0 | 100 | – | – | – | – | –
CCc1nn(C)c(C(=O)NCc2ccccc2Oc2cccc(C)c2)c1Cl | 0 | 0 | 0 | 0 | – | – | – | – | –
CCc1nn(C)c(C(=O)NCc2ccc(Oc3ccc(C)cc3)cc2)c1OC | 100 | 0 | 100 | 100 | – | – | – | – | –
CCc1nn(C)c(C(=O)NCc2cccc(Oc3cccc(C)c3)c2)c1Cl | 80 | 0 | 0 | 30 | – | – | – | – | –
CCc1nn(C)c(C(=O)NCc2ccc(Oc3ccc(C)cc3)cc2)c1Cl [TOLFENPYRAD] | 100 | 30 | 100 | 100 | > 100 | 30 | 100 | 0 | 100
Cc1ccc(Oc2ccc(CNC(=O)c3c4c(nn3C)C(C)CC4)cc2)cc1 (configuration not stated) | 100 | 0 | 0 | 80 | – | – | – | – | –
Cc1ccc(Oc2ccc(CNC(=O)c3c4ccccc4nn3C)cc2)cc1 | 0 | 0 | 0 | 0 | – | – | – | – | –
CCc1nn(C)c(C(=O)NCc2ccc(Oc3ccc(C)cc3)cc2)c1Br | 80 | 0 | 0 | 30 | – | – | – | – | –
CCCc1nn(C)c(C(=O)NCc2ccc(Oc3ccc(C)cc3)cc2)c1Cl | 80 | 0 | 0 | 0 | – | – | – | – | –
CCc1nn(C)c(C(=O)NCc2ccc(COc3ccc(C)cc3)cc2)c1Cl | 0 | 0 | 0 | 0 | – | 0 | 0 | 0 | 0
CCc1nn(C)c(C(=O)NCc2ccccc2Oc2ccccc2C)c1Cl | 0 | 0 | 0 | 0 | – | – | – | – | –
CCC1CCc2c1nn(C)c2C(=O)NCc1ccc(Oc2ccc(C)cc2)cc1 (configuration not stated) | 80 | 0 | 0 | 30 | – | – | – | – | –
